Laboratory results as given in patent publication US11006626B2, “Compounds for protection of cells” (Sulfateq B.V., priority 2012, dated 2021).

What was measured:
[1] = tested on: porcine hearts; experiment: Cold ischemic tolerance of porcine hearts, reperfusion in PhysioHeart platform; parameters: species or system pig
Source text: This example studies if SUL 109 as additive to standard heart transplantation protocols will help to prolong the maximal cold ischemic protection of porcine hearts. For long term arrest, for example in case of transplantation, a commonly used solution is CUSTODIOL®. With CUSTODIOL® solution it is possible to keep a heart in a cold ischemic state for up to six hours before reperfusion with warm oxygenated blood is necessary.
Two hearts were harvested from slaughterhouse pigs and treated as follows. […] After exsanguinations the sternum was quickly opened and the heart and lungs were removed as a whole. The heart was immediately submersed in an ice cold bath and the aorta was cut proximal to the brachocephalic side branches. A 19 mm cannula was inserted in the aorta and tied off. The carefully de-aired cannulla was used to retrogradely administer cold cardioplegic solution. In the first heart, 2 liters of standard CUSTODIOL® with 5000 IU/1 of heparin added was administered. The second heart was administered 2 liters of CUSTODIOL® with 5000 IU/1 of heparin and 10 ml/l of SUL 109 in 0.9% NaCl at 75 μM. Both hearts were stored in plastic bags filled with the same solutions and transported to the lab on ice at approximately 4° C. Before preparation the hearts were stored at 4° C. for 24 hours. The next day both hearts were prepared to be mounted in the PhysioHeart platform as described in DeHart et al 2011. After de-airing the hearts, retrograde reperfusion of the aorta was started with warm oxygenated blood at 38° C. Both flow of blood and pressure at the aortic root were registered during the experiment.

[2] = tested on: Human Embryo Kidney (HEK) 293 cells; experiment: Hypothermia/rewarming injury of HEK cells, trypan blue viability count; assay type: cell-based; conditions: for viability at 0.01 µM / viability at 0.1 µM / viability at 1 µM / viability at 10 µM / viability at 100 µM / viability at 1000 µM: Homo sapiens, HEK293, 24 h, read-out: % cells that survived; for viability at 0.01 µM / viability at 0.1 µM / viability at 1 µM / viability at 10 µM / viability at 100 µM / viability at 1000 µM / % cells that survived: 24 h at 4° C., 24 h rewarming; for % cells that survived, Mean: mean over the tested concentrations
Protocol: Human Embryo Kidney (HEK) 293 cells were cultured in DMEM cell culture medium (Life Technologies, 41965-052) supplemented with fetal calf serum, penicillin and streptomycin. Cells were seeded at a density of 0.8-1.2E6 mL-1 in 25 cm2 polystyrene flasks, placed in a 37° C.
The compounds were dissolved in dimethyl sulfoxide (DMSO) to several concentrations. Before commencing experiments, this stock solution was dissolved in pre-warmed DMEM and further diluted to obtain a concentration range from 10 nM-1 mM. Cell culture medium was then replaced by these dilutions and cells were incubated in the presence of the compound for 1 hour. After incubation, lids were closed tightly and flasks were placed in a 4° C. room and cooled for 24 hours. After this cooling period, cells were placed back in the 37° C. incubator with lids closed and were allowed to rewarm for another 24 hours.
After this rewarming period, microscopic images were taken to assess cell morphology (Nikon D5100, Nikon Diaphot-TMD). Cell culture medium was collected and centrifuged (4 minutes, 2000 rpm). The supernatant was collected and pH was immediately measured to prevent equilibration of the pH by the carbonate buffer in the medium, while the pelleted cells were resuspended in 5 mL of PBS. Cells remaining in the flask were washed twice with phosphate buffered saline (PBS) while the washing product was discarded. Subsequently, the cells were trypsinized by addition of 0.5 mL of trypsine and pooled with the resuspended pellet. This cell suspension was then stained at a final concentration of 0.2% trypan blue (Sigma, T8154), followed by manual assessment of viability and cell number on a Bürker-Türk hemocytometer. To conclude the assay, cell culture medium glucose levels were measured (Roche Accutrend Plus) as an indication of metabolic activity. All of these steps were performed with care to prevent mechanical stress to influence or alter the viability of the cells after cooling.
The amount represents the % cells that survived. […] In the control, the same procedure was applied to two badges of HEK cells.

[3] = tested on: blood platelets; experiment: Cold storage of PRP blood platelets, aggregation of thrombocytes after storage; assay type: cell-based; parameters: key: − means that most of the thrombocytes were aggregated; a + indicates that a few cells were still viable but some cells aggregated; a ++ indicates that almost all cells were viable; conditions: 30 mM; PRP platelets stored at 4° C.; 264 hours
Protocol: PRP platelets were harvested and 2.1 ml was suspended in Poly Propylene tubes of 5 ml, closed with a stop.
Several compounds according to the invention were added to the blood platelets directly after preparing the PRP plasma and incubated during 10 minutes at 37° C. or 30 minutes at room temperature. The blood platelets with the compound were then stored at 4° C.
A control was stored under shaking conditions at room temperature. Another control was stored at 4° C. without the addition of a compound.
A sample was taken out of each tube after 264 hours after addition of the compound and tested as follows: • The color and coagulation properties were visually analysed. • The thrombocyte cells that survived were counted and it was evaluated whether the thrombocytes were aggregated. • It was evaluated if the thrombocytes still were able to function after stimulation by the addition of ADP or under influence of collagen in a 96 well plate. • The adhesion was evaluated, meaning the ability of the platelets to bind collagen in a 6 well plate preincubated with collagen. • Via an ELISA assay, it was evaluated whether thromboxane was secreted from the platelets. Thromboxane facilitates aggregation and is produced by activated blood platelets.
Table 3 provides an overview of the results of the addition of the compounds to the blood platelets and evaluates the aggregation of the thrombocytes after addition of the compound according to the invention and cooling until 4° C.

[4] = at reperfusion after 24 hours at 4° C., vs. non treated heart

Structure (SMILES)	contraction after defibrillation shocks ([1]; at reperfusion after 24 hours at 4° C.)	contractile activity [1, 4]	vascular resistance [1, 4]	coronary flow ([1]; perfusion pressure of 80 mmHg, reperfusion after 24 hours at 4° C.) [lpm]	contractive activity of the myocardial tissue ([1]; treated vs. non-treated heart)	viability at 0.01 µM ([2]; 10 nM) [%]	viability at 0.1 µM ([2]; 100 nM) [%]	viability at 1 µM ([2]; 1 μM) [%]	viability at 10 µM ([2]; 10 μM) [%]	viability at 100 µM ([2]; 100 μM) [%]	viability at 1000 µM ([2]; 1 mM) [%]	% cells that survived, Mean [2] [%]	Aggregation of blood platelets after storage [3]	% cells that survived ([2]; 10 nM) [%]	% cells that survived ([2]; 100 nM) [%]	% cells that survived ([2]; 1 μM) [%]	% cells that survived ([2]; 10 μM) [%]	% cells that survived ([2]; 100 μM) [%]	% cells that survived ([2]; 1 mM) [%]
Cc1c(C)c2c(c(C)c1O)CCC(C)(C(=O)N1CCN(CCO)CC1)O2 (centres unmarked) [SUL - 109, (6-hydroxy-2,5,7,8-tetramethylchroman-2-yl)(4-(2-hydroxyethyl)piperazin-1-yl)methanone]	weak contractive unpaced pattern	more contractile activity compared to the non treated one	lower vascular resistance	1	improved regular contractive activity	92.6	98	97	94.9	93.7	87.4	94	–	–	–	–	–	–	–
Cc1c(C)c2c(c(C)c1O)CCC(C)(C(=O)N1CCN(CCO)CC1)O2 (centres unmarked) [SUL - 132, (6-hydroxy-2,5,7,8-tetramethylchroman-2-yl)(4-(2-hydroxyethyl)piperazin-1-yl)methanone]	–	–	–	–	–	–	–	–	–	–	–	89	+	93.96	91.41	88.30	91.11	89.73	80.51
Cc1c(C)c2c(c(C)c1O)CCC(C)(C(=O)N[C@H](C)CO)O2 (stereo partly drawn) [SUL - 120, 6-hydroxy-N-((R)-1-hydroxypropan-2-yl)-2,5,7,8-tetramethylchroman-2-carboxamide]	–	–	–	–	–	17.6	65.3	95.5	91.6	88.7	81.5	73	+	–	–	–	–	–	–
CNCCNC(=O)C1(C)CCc2c(C)c(O)c(C)c(C)c2O1 (centres unmarked) [SUL - 100, 6-hydroxy-2,5,7,8-tetramethyl-N-(2-(methylamino)ethyl)chroman-2-carboxamide]	–	–	–	–	–	77.8	76.9	63.2	68.8	55.6	0	57	+	–	–	–	–	–	–
Cc1c(C)c2c(c(C)c1O)CC[C@@](C)(C(=O)N1CCN(CC(=O)O)CC1)O2 [SUL - 141, (S)-2-(4-(6-hydroxy-2,5,7,8-tetramethylchroman-2-carbonyl)piperazin-1-yl)acetic acid]	–	–	–	–	–	58.5	96.2	0.75	99.4	96.8	99.1	75	+	–	–	–	–	–	–
